Source: ChEMBL document CHEMBL2150883, “Development of indole compounds as small molecule fusion inhibitors targeting HIV-1 glycoprotein-41” (J Med Chem, 2011)
pEC50, pKi: −log10 of the molar value.

Legend:
[1] = tested on: Human immunodeficiency virus 1; assay: Antiviral activity against HIV1 Ba-L assessed as inhibition of viral replication by CCR5/CXCR4-tropic MAGI assay in presence of 10% serum; assay type: functional, organism-based; conditions: Human immunodeficiency virus 1, Ba-L
[2] = tested on: Human immunodeficiency virus 1; assay: Antiviral activity against HIV1 3B assessed as inhibition of viral replication by CCR5/CXCR4-tropic MAGI assay in presence of 10% serum; assay type: functional, organism-based; conditions: Human immunodeficiency virus 1, 3B
[3] = Cytotoxicity against human MAGI-CCR5 cells assessed as cell viability by MTS assay in presence of 2% serum; assay type: cell-based
[4] = tested on: Human immunodeficiency virus 1; assay: Antiviral activity against HIV1 Ba-L assessed as inhibition of viral replication by CCR5/CXCR4-tropic MAGI assay in presence of 2% serum; assay type: functional, organism-based; conditions: Human immunodeficiency virus 1, Ba-L
[5] = Cytotoxicity against human MAGI-CCR5 cells assessed as cell viability by MTS assay in presence of 5% serum; assay type: cell-based
[6] = tested on: Human immunodeficiency virus 1; assay: Antiviral activity against HIV1 Ba-L assessed as inhibition of viral replication by CCR5/CXCR4-tropic MAGI assay in presence of 5% serum; assay type: functional, organism-based; conditions: Human immunodeficiency virus 1, Ba-L
[7] = Cytotoxicity against human MAGI-CCR5 cells assessed as cell viability by MTS assay in presence of 10% serum; assay type: cell-based
[8] = Cytotoxicity against human MAGI-CCR5 cells assessed as cell viability by MTS assay; assay type: cell-based
[9] = Binding affinity to HIV1 HXB2 gp41 by fluorescence assay; set-up: species or system Human immunodeficiency virus 1
[10] = Inhibition of gp41 in HIV1 HXB2 assessed as cell-cell fusion inhibition after 6 hrs by luciferase reporter gene assay; conditions: Human immunodeficiency virus 1, HXB2, 6 h

Structure (SMILES)	pEC50 [1]	pEC50 [2]	CC50 [3]	pEC50 [4]	CC50 [5]	pEC50 [6]	CC50 [7]	CC50 ([8]; magi-ccr5)	CC50 ([8]; MAGI-CCR5 cells)	pKi [9]	pEC50 [10]
O=C(O)c1cccc(Cc2ccc3ccn(Cn4ccc5ccc(Cc6cccc(C(=O)O)c6)cc54)c3c2)c1	4.04	< 4.00	> 100 µM	4.84	> 100 µM	4.30	> 100 µM	–	–	–	–
COc1ccc(COc2cccc(-c3ccc4ccn(Cc5cccc(C(=O)OCc6cccc(C(=O)O)c6)c5)c4c3)c2)cc1	4.65	4.46	58.9 µM	4.86	> 100 µM	4.73	> 100 µM	> 100 µM	–	–	–
O=C(O)c1cccc(Cn2ccc3ccc(-c4ccc5cc(Cl)ccc5n4)cc32)c1	< 4.00	< 4.00	> 100 µM	4.32	> 100 µM	4.05	> 100 µM	47 µM	–	–	–
COc1cc(Cc2ccc3cc[nH]c3c2)cc(C(=O)O)c1	< 4.00	< 4.00	> 100 µM	5.06	> 100 µM	< 4.00	> 100 µM	> 100 µM	–	–	–
O=C(O)c1cccc(Cc2ccc3cc[nH]c3c2)c1	4.35	4.00	> 100 µM	4.81	> 100 µM	4.46	> 100 µM	–	–	–	–
O=C(O)c1cccc(Cn2ccc3ccc(-c4cccc(O)c4)cc32)c1	4.08	< 4.00	> 100 µM	4.56	> 100 µM	4.23	> 100 µM	> 100 µM	–	–	–
O=Cc1c[nH]c2cc(Cc3cccc(C(=O)O)c3)ccc12	–	–	–	–	–	–	–	–	> 100 µM	–	–
O=C(O)c1cccc(-c2ccc3cc[nH]c3c2)c1	–	–	–	–	–	–	–	–	> 100 µM	–	–
O=C(O)c1cccc(Cc2ccc3ccn(Cc4cccc(C(=O)O)c4)c3c2)c1	–	–	–	–	–	–	–	–	> 200 µM	–	–
O=C(O)c1ccc([N+](=O)[O-])c(Cc2ccc3cc[nH]c3c2)c1	< 4.00	< 4.00	> 100 µM	4.73	> 100 µM	4.08	> 100 µM	> 100 µM	–	–	–
O=C(O)c1cccc(Cc2ccc3[nH]ccc3c2)c1	4.20	< 4.00	> 100 µM	4.37	> 100 µM	4.28	> 100 µM	–	> 400 µM	–	–
COc1ccc(C(=O)O)cc1Cc1ccc2cc[nH]c2c1	< 4.00	< 4.00	> 100 µM	< 4.00	> 100 µM	< 4.00	> 100 µM	> 100 µM	–	–	–
COc1cccc(-n2ccc3ccc(Cc4cccc(C(=O)O)c4)cc32)c1	4.17	4.21	> 100 µM	4.80	> 100 µM	4.47	> 100 µM	–	–	–	–
O=C(O)c1cccc(Cn2ccc3ccc(-c4ccc5ccn(Cc6ccc(F)cc6)c5c4)cc32)c1	5.35	5.28	52.2 µM	5.81	98.5 µM	5.48	> 100 µM	17 µM	–	5.96	6.27
O=C(O)c1cccc(Cn2ccc3cc(-c4ccc5cc(Cl)ccc5n4)ccc32)c1	4.88	4.81	50.1 µM	5.19	> 100 µM	5.00	> 100 µM	> 100 µM	–	–	–
COc1cccc(-c2ccc3ccn(Cc4cccc(C(=O)O)c4)c3c2)c1	4.32	4.24	67.5 µM	4.74	> 100 µM	4.44	> 100 µM	–	> 500 µM	–	–
O=C(O)c1cccc(Cc2ccc3c(ccn3Cc3cccc(C(=O)O)c3)c2)c1	–	–	–	–	–	–	–	–	> 100 µM	4.46	< 4.00
O=C(O)c1cccc(COc2cccc(-c3ccc4ccn(Cc5cccc(C(=O)O)c5)c4c3)c2)c1	< 4.00	< 4.00	> 100 µM	4.47	> 100 µM	4.25	> 100 µM	–	> 500 µM	–	–
COc1ccc(Cn2ccc3ccc(-c4ccc5ccn(Cc6cccc(C(=O)O)c6)c5c4)cc32)cc1	5.62	5.55	50.1 µM	6.04	> 100 µM	5.70	> 100 µM	19 µM	–	–	–
COc1ccc(Cn2ccc3ccc(Cc4cccc(C(=O)O)c4)cc32)cc1	< 4.00	< 4.00	92.7 µM	4.25	> 100 µM	4.04	> 100 µM	100 µM	–	–	–
O=C(O)c1cccc(Cc2ccc3ccn(-c4cccc(C(=O)O)c4)c3c2)c1	–	–	–	–	–	–	–	–	> 400 µM	4.35	–
O=C(O)c1cc(O)cc(Cc2ccc3cc[nH]c3c2)c1	< 4.00	< 4.00	> 100 µM	< 4.00	> 100 µM	< 4.00	> 100 µM	–	> 500 µM	–	–
O=C(O)c1ccc(O)c(Cc2ccc3cc[nH]c3c2)c1	< 4.00	< 4.00	> 100 µM	4.37	> 100 µM	4.05	> 100 µM	–	> 500 µM	–	–
O=C(O)C(=O)c1c[nH]c2cc(Cc3cccc(C(=O)O)c3)ccc12	–	–	–	–	–	–	–	–	> 100 µM	–	–
